Results published in patent publication US7166296B2, “Pharmaceutical formulations and ligands for use therein; mimetics for UEA-1” (Sarlan, Ltd., priority 2001, dated 2007).
pIC50: −log10 of the molar value. ≈ marks a conversion by molar mass, not a printed value. Non-standard residues stand in square brackets, D forms with d. Residues, ends and D or L forms follow the SMILES beside them. *: point of attachment. Galloyl = O=C(c1cc(O)c(O)c(O)c1)*; Orn = NCCC[CH](N)C(=O)O

What was measured:
[1] = tested on: UEA-1 binding sites on Caco-2 cell membrane preparations; assay: Single tier competition assay: inhibition of biotinylated UEA-1 binding, compound and biotinylated UEA-1 incubated together; parameters: species or system human; settings: for IC 50 (ug/ml) 1st tier / IC50: Table 8, galloyl constructs; for IC50: read-out: IC 50 (uM) 1st tier (converted); for pIC50 / Single Tier Assay IC50: library MSI 27; for pIC50: read-out: Single Tier Assay IC50; for Av % Inhibition: Single Tier Assay, library MSI 22
How it was run: (§1)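 Plates coated with Caco-2 membrane preparation (10 μg/ml, carbonate buffer pH 9.6) and BSA-blocked. Single tier: compound and biotinylated UEA-1 incubated together overnight. Two tier: compound incubated overnight with membranes first, biotinylated UEA-1 added next. Bound UEA-1 detected by streptavidin-HRP/OPD, OD490.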

[2] = tested on: UEA-1 binding sites on Caco-2 cell membrane preparations; assay: Two tier competition assay: compound incubated alone with membranes, biotinylated UEA-1 added in next step; parameters: species or system human; settings: for IC 50 (ug/ml) 2nd tier / IC50: Table 8, galloyl constructs; for IC50: read-out: IC 50 (uM) 2nd tier; for pIC50 / Two Tier Assay IC50: library MSI 27; for pIC50: read-out: Two Tier Assay IC50; for Av % Inhibition: Two Tier Assay, library MSI 22
How it was run: as §1

In the case of `CC(=O)NC(Cc1ccc(NC(=O)c2cc(O)c(O)c(O)c2)cc1)C(=O)NC(Cc1ccc(NC(=O)c2cc(O)c(O)c(O)c2)cc1)C(=O)NC(Cc1ccc(NC(=O)c2cc(O)c(O)c(O)c2)cc1)C(N)=O` (stereo not shown) [MSI 34 #16], the “IC 50 (ug/ml) 1st tier” value [1] was 3 µg/mL (≈ 2.99 µM), the IC50 [1] was 3 µM and the “IC 50 (ug/ml) 2nd tier” value [2] was 6 µg/mL (≈ 5.99 µM). The IC50 [2] was 6 µM.

Compound `COc1cc(C(=O)NCCCCC(NC(=O)c2cc(OC)c(OC)c(OC)c2)C(N)=O)cc(OC)c1OC` (stereo not shown) [Cpd 4] has a pIC50 [1] of 3.33 and a pIC50 [2] of 3.33.

With `NC(=O)C(Cc1ccc(NC(=O)c2cc(O)c(O)c(O)c2)cc1)NC(=O)C(Cc1ccc(NC(=O)c2cc(O)c(O)c(O)c2)cc1)NC(=O)C(Cc1ccc(NC(=O)c2cc(O)c(O)c(O)c2)cc1)NC(=O)c1cc(O)c(O)c(O)c1` (stereo not shown) [MSI 34 #20] the “IC 50 (ug/ml) 1st tier” value [1] was 2 µg/mL (≈ 1.8 µM), the IC50 [1] was 2 µM and the “IC 50 (ug/ml) 2nd tier” value [2] was 6 µg/mL (≈ 5.4 µM). The IC50 [2] was 5 µM.

With `CC(=O)NC(CCCNC(=O)c1cc(O)c(O)c(O)c1)C(=O)NC(CCCNC(=O)c1cc(O)c(O)c(O)c1)C(=O)NC(CCCNC(=O)c1cc(O)c(O)c(O)c1)C(=O)NC(CCCNC(=O)c1cc(O)c(O)c(O)c1)C(N)=O` (stereo not shown) [MSI 34 #23] (Ac-[Orn](Galloyl)[Orn](Galloyl)[Orn](Galloyl)[Orn](Galloyl)-NH2; configuration not given here) the “IC 50 (ug/ml) 1st tier” value [1] was 6 µg/mL (≈ 5.34 µM), the IC50 [1] was 5 µM and the “IC 50 (ug/ml) 2nd tier” value [2] was 1 µg/mL (≈ 0.89 µM). For the same compound, the IC50 [2] was 1 µM.

For `CC(=O)NC(CCCCNC(=O)c1ccc(O)cc1)C(N)=O` (stereo not shown) [Cpd 15], the “Single Tier Assay IC50” value [1] was 111.40 µg/mL, the pIC50 [1] was 3.44 and the “Two Tier Assay IC50” value [2] was 86.81 µg/mL. For the same compound, the pIC50 [2] was 3.55.

`CC(=O)NC(CCCCNC(=O)c1cc(O)cc(O)c1)C(=O)NC(CCCCNC(=O)c1cc(O)cc(O)c1)C(N)=O` (stereo not shown) [Cpd 40] was tested, and the pIC50 [1] was 3.37 and the pIC50 [2] was 3.37.

Compound `NC(=O)[C@@H](CCCCNC(=O)c1ccc(O)cc1)NC(=O)[C@@H](CCCCNC(=O)c1ccc(O)cc1)NC(=O)[C@@H](CCCCNC(=O)c1ccc(O)cc1)NC(=O)c1ccc(O)cc1` [Cpd 47] has a pIC50 [1] of 3.55 and a pIC50 [2] of 3.55.

In the case of `NC(=O)C(CNC(=O)c1cc(O)c(O)c(O)c1)NC(=O)C(CNC(=O)c1cc(O)c(O)c(O)c1)NC(=O)C(CNC(=O)c1cc(O)c(O)c(O)c1)NC(=O)c1cc(O)c(O)c(O)c1` (stereo not shown) [MSI 34 #17], the “IC 50 (ug/ml) 1st tier” value [1] was 1 µg/mL (≈ 1.13 µM), the IC50 [1] was 1 µM and the “IC 50 (ug/ml) 2nd tier” value [2] was 0.7 µg/mL (≈ 0.792 µM). It also gave an IC50 [2] of 0.8 µM.

With `COc1cc(C(=O)NCCCCC(NC(=O)C(CCCCNC(=O)c2cc(OC)c(O)c(OC)c2)NC(C)=O)C(N)=O)cc(OC)c1O` (stereo not shown) [Cpd 33] the “Single Tier Assay IC50” value [1] was 97.85 µg/mL, the pIC50 [1] was 3.84 and the “Two Tier Assay IC50” value [2] was 72.17 µg/mL. For the same compound, the pIC50 [2] was 3.97.

With `COc1cc(C(=O)NCCCC[C@@H](NC(=O)[C@@H](CCCCNC(=O)c2cc(OC)c(OC)c(OC)c2)NC(=O)[C@@H](CCCCNC(=O)c2cc(OC)c(OC)c(OC)c2)NC(=O)c2cc(OC)c(OC)c(OC)c2)C(N)=O)cc(OC)c1OC` [Cpd 44] the pIC50 [1] was 3.67 and the pIC50 [2] was 3.67.

For `NC(=O)C(CNC(=O)C(CNC(=O)c1cc(O)c(O)c(O)c1)NC(=O)c1cc(O)c(O)c(O)c1)NC(=O)CCCCCNC(=O)C(CNC(=O)c1cc(O)c(O)c(O)c1)NC(=O)c1cc(O)c(O)c(O)c1` (stereo not shown) [MSI 39 #4], the “IC 50 (ug/ml) 1st tier” value [1] was 6 µg/mL (≈ 6.02 µM), the IC50 [1] was 5 µM and the “IC 50 (ug/ml) 2nd tier” value [2] was 0.8 µg/mL (≈ 0.802 µM). For the same compound, the IC50 [2] was 0.7 µM.

`CCOc1cc(C(=O)NCCCCC(NC(=O)C(CCCCNC(=O)c2cc(OCC)c(OCC)c(OCC)c2)NC(C)=O)C(N)=O)cc(OCC)c1OCC` (stereo not shown) [Cpd 35] gave a pIC50 [1] of 3.50 and a pIC50 [2] of 3.50.

`CC(=O)NC(CNC(=O)c1cc(O)c(O)c(O)c1)C(=O)NC(CNC(=O)c1cc(O)c(O)c(O)c1)C(=O)NC(CNC(=O)c1cc(O)c(O)c(O)c1)C(N)=O` (stereo not shown) [MSI 34 #13] was tested, and the “IC 50 (ug/ml) 1st tier” value [1] was 1st tier = 22nd tier = 2 ug/ml, the IC50 [1] was 3 µM and the “IC 50 (ug/ml) 2nd tier” value [2] was 1st tier = 22nd tier = 2 ug/ml. The IC50 [2] was 2 µM.

For `COc1cc(C(=O)NCCCCC(NC(=O)C(CCCCNC(=O)c2cc(OC)c(OC)c(OC)c2)NC(C)=O)C(N)=O)cc(OC)c1OC` (stereo not shown) [Cpd 36], the pIC50 [1] was 3.45, the “Two Tier Assay IC50” value [2] was 125.00 µg/mL and the pIC50 [2] was 3.75.

In the case of `NC(=O)C(CCCCNC(=O)C(CCCCNC(=O)c1cc(O)c(O)c(O)c1)NC(=O)c1cc(O)c(O)c(O)c1)NC(=O)C(CCCCNC(=O)c1cc(O)c(O)c(O)c1)NC(=O)c1cc(O)c(O)c(O)c1` (stereo not shown) [Cpd 22], the “IC 50 (ug/ml) 1st tier” value [1] was 10 µg/mL (≈ 9.9 µM), the IC50 [1] was 10 µM and the “Single Tier Assay IC50” value [1] was 17.61 µg/mL. For the same compound, the pIC50 [1] was 4.76, the “IC 50 (ug/ml) 2nd tier” value [2] was 1 µg/mL (≈ 0.99 µM) and the IC50 [2] was 1 µM. For the same compound, the “Two Tier Assay IC50” value [2] was 2.86 µg/mL and the pIC50 [2] was 5.55.

`CNC[C@H](Cc1ccc2ccccc2c1)N(C)C[C@@H](Cc1ccc2ccccc2c1)NC(=O)c1cc(O)c(O)c(O)c1` [L-NapAla, D-Napala, Gallic Acid] was tested, and the “Av % Inhibition” value ([1]; 62.5 μg/ml) was −3%, the “Av % Inhibition” value ([1]; 250 μg/ml) was 7% and the “Av % Inhibition” value ([2]; 62.5 μg/ml) was 22.0%. The “Av % Inhibition” value ([2]; 250 μg/ml) was 44.6%.

In the case of `NC(=O)C(Cc1ccc(NC(=O)C(Cc2ccc(NC(=O)c3cc(O)c(O)c(O)c3)cc2)NC(=O)c2cc(O)c(O)c(O)c2)cc1)NC(=O)C(Cc1ccc(NC(=O)c2cc(O)c(O)c(O)c2)cc1)NC(=O)c1cc(O)c(O)c(O)c1` (stereo not shown) [MSI 34 #8], the “IC 50 (ug/ml) 1st tier” value [1] was 4 µg/mL (≈ 3.6 µM), the IC50 [1] was 4 µM and the “IC 50 (ug/ml) 2nd tier” value [2] was 3 µg/mL (≈ 2.7 µM). For the same compound, the IC50 [2] was 2 µM.

`NC(=O)C(CCCCNC(=O)c1cc(O)cc(O)c1)NC(=O)C(CCCCNC(=O)c1cc(O)cc(O)c1)NC(=O)c1cc(O)cc(O)c1` (stereo not shown) [Cpd 32] was tested, and the pIC50 [1] was 3.44 and the pIC50 [2] was 3.44.

For `CC(=O)N[C@H](CCCCNC(=O)c1cc(O)c(O)c(O)c1)C(=O)N[C@H](CCCCNC(=O)c1cc(O)c(O)c(O)c1)C(=O)N[C@H](CCCCNC(=O)c1cc(O)c(O)c(O)c1)C(=O)N[C@H](CCCCNC(=O)c1cc(O)c(O)c(O)c1)C(=O)N[C@H](CCCCNC(=O)c1cc(O)c(O)c(O)c1)C(=O)N[C@H](CCCCNC(=O)c1cc(O)c(O)c(O)c1)C(=O)N[C@H](CCCCNC(=O)c1cc(O)c(O)c(O)c1)C(N)=O` [MSI 30 #14] (Ac-[dK](Galloyl)[dK](Galloyl)[dK](Galloyl)[dK](Galloyl)[dK](Galloyl)[dK](Galloyl)[dK](Galloyl)-NH2), the “IC 50 (ug/ml) 1st tier” value [1] was 17 µg/mL (≈ 8.41 µM), the IC50 [1] was 8 µM and the “IC 50 (ug/ml) 2nd tier” value [2] was 9 µg/mL (≈ 4.45 µM). For the same compound, the IC50 [2] was 4 µM.

In the case of `NC(=O)C(Cc1ccc(NC(=O)c2cc(O)c(O)c(O)c2)cc1)NC(=O)C(Cc1ccc(NC(=O)c2cc(O)c(O)c(O)c2)cc1)NC(=O)c1cc(O)c(O)c(O)c1` (stereo not shown) [MSI 34 #12], the “IC 50 (ug/ml) 1st tier” value [1] was 6 µg/mL (≈ 7.52 µM), the IC50 [1] was 8 µM and the “IC 50 (ug/ml) 2nd tier” value [2] was 4 µg/mL (≈ 5.01 µM). It also gave an IC50 [2] of 5 µM.

With `COc1cc(C(=O)NCCCCC(NC(=O)C(CCCCNC(=O)c2cc(OC)c(O)c(OC)c2)NC(=O)C(CCCCNC(=O)c2cc(OC)c(O)c(OC)c2)NC(=O)c2cc(OC)c(O)c(OC)c2)C(N)=O)cc(OC)c1O` (stereo not shown) [Cpd 41] the “Single Tier Assay IC50” value [1] was 89.77 µg/mL, the pIC50 [1] was 4.10 and the “Two Tier Assay IC50” value [2] was 83.26 µg/mL. It also gave a pIC50 [2] of 4.13.

In the case of `CC(=O)N[C@H](CCCCNC(=O)c1cc(O)c(O)c(O)c1)C(=O)N[C@H](CCCCNC(=O)c1cc(O)c(O)c(O)c1)C(=O)N[C@H](CCCCNC(=O)c1cc(O)c(O)c(O)c1)C(=O)N[C@H](CCCCNC(=O)c1cc(O)c(O)c(O)c1)C(N)=O` [MSI 39 #12] (Ac-[dK](Galloyl)[dK](Galloyl)[dK](Galloyl)[dK](Galloyl)-NH2), the “IC 50 (ug/ml) 1st tier” value [1] was 8 µg/mL (≈ 6.78 µM), the IC50 [1] was 7 µM and the “IC 50 (ug/ml) 2nd tier” value [2] was 3 µg/mL (≈ 2.54 µM). The IC50 [2] was 2 µM.
